Test results reported in US10125121B2, “FYN kinase inhibitors” (ROTTAPHARM BIOTECH S.R.L., priority 2015, dated 2018).
Read-outs that look alike come from different tables or passages of the source.

Columns and labels:
[1] = target: active FYN (human recombinant, 62.7 kDa) (Homo sapiens, UniProt P06241); experiment: In vitro kinase assay (Z′-LYTE FRET); type: biochemical; details: read-out: IC50(nM) FYN INHIBITION
Experimental: Assays to determine the kinase inhibitory activity of compounds were performed using an automatic liquid handling device (Microlab STAR Hamilton) and Z′-LYTE™ Kinase Assay Platform, a Fluorescence Resonance Energy Transfer (FRET)-based assay platform compatible with high-throughput screening (HTS) applications. The assay employs a fluorescence-based, coupled-enzyme format and utilizes the differential sensitivity of phosphorylated and non-phosphorylated peptides to proteolytic cleavage.
All reagents were diluted in reaction buffer and the kinase reaction was carried out in a total volume of 10 μl, for 60 minutes at 25° C. The 0% Phosphorylation (i.e. no ATP) and 100% Phosphorylation (i.e. synthetically phosphorylated peptide supplied) Assay Controls, included in each plate, allowed to calculate the percent phosphorylation achieved in the specific reaction well. The 0% Inhibition and 0% Phosphorylation (i.e. 100% Inhibition) Controls define the dynamic range in the screen. At the end of incubation, a secondary reaction (the Development Reaction) started by adding 5 μl of Development Reagent, containing a site-specific protease that recognizes and cleaves non-phosphorylated peptides, and was interrupted after 60 minutes with 5 μl/sample of Stop Reagent.
The compounds were tested in a range of concentrations 10^−6-10^−9 M.
Results are expressed as percentage of inhibition and the IC50 values were calculated by non-linear curve fitting using GraphPad™ Prism software.

[2] = system: NF-kB activation in JB6 CI 41-5a (P+) cells; experiment: Gene reporter (GR) assay, NF-kB luciferase after TNFα stimulation; type: cell-based, murine; details: 1 h pre-treatment, 2 ng/ml TNFα for 4 h, read-out: IC50(nM) GR Inhibition
Description: To determine if the compounds of the invention were active also in a cellular model, a gene reporter assay was established in a cell line (JB6 CI 41-5a (P+)) know to activate Fyn kinase via an inflammatory stimuli (TNFα). GR assay measures the activation of the nuclear transcription factor NF-kB, situated down-stream the Fyn activation pathway. Products active in this analysis has to penetrate in the cell and inhibit the activation pathway of NF-kB.
The murine epithelial cell line JB6 CI 41-5a (P+) (ATCC® Cat. # CRL-2010) was stably transfected with the pGL4.32[luc2P/NFkB-RE/Hygro] vector (Promega). Clonal selection was achieved by limiting dilution in MEM (+Earle's BSS+1.5 g/l sodium bicarbonate+0.1 mM NEAA)+GlutaMAX™-I, +1 mM sodium pyruvate, +5% FBS+80 μg/ml Hygromycin B. The clones were tested for their response to TNFα stimulus. The obtained transfected cells (JB6(P+) NFkB-RE-luc2P T3-C10) contained a firefly luciferase gene (luc2P) under the control of minimal TATA promoter with multiple Nuclear Factor-kB response elements (NFkB-REs). These NFkB-REs are DNA binding sequences for the NF-kB transcription factor.
JB6(P+) NFkB-RE-luc2P T3-C10 cells were used for the analysis of NF-kB activity modulation, after TNFα stimulation, by Fyn-inhibitors (Hwang et al.; Biochem. Pharmacol. 2009, 77 (7):1213-22).
6000 cells/well were plated in a 96× well plate. After 24 h new medium without antibiotics was given. After further 24 h the cells were pre-treated with the different compounds for 1 h and then stimulated with 2 ng/ml TNFα for 4 h. In each experiments two positive standards were always used, and each tested condition was analyzed in quadruplicate.
The luciferase analysis was performed with ONE-Glo™+ToxLuciferase Reporter and Cell Viability Assay kit (Promega). This assay combined luciferase assay chemistry with a cell viability marker to better understand reporter gene expression in the context of cell health. The assay uses a two-step process. The first part of the assay was a non-lytic fluorescence assay (CellTiter-Fluor™ Cell Viability Assay) that measured the relative number of live cells in a culture population, as it measures a conserved and constitutive protease activity within live cells. The live-cell protease activity was restricted to intact viable cells and was measured using a fluorogenic, cell-permeant peptide substrate (glycyl-phenylalanyl-aminofluorocoumarin; GF-AFC). The generated fluorescent signal, proportional to the number of living cells, was measured with EnVision microplate reader (PerkinElmer) using an excitation wavelength of 400 nm and emission wavelength of 500 nm.
The second part of the assay uses the ONE-Glo™ Luciferase Assay System to quantify firefly luciferase reporter gene expression. The ONE-Glo™ Assay contained a fluoro-luciferin substrate, more tolerant to sample components than standard luciferase assay reagents. Luminescence was measured with EnVision microplate reader (PerkinElmer).
Compounds of Formula (I) were tested for their capacity to penetrate into the cell and inhibit the activation pathway of NF-kB.

CFA induced hyperalgesia = experiment: CFA-induced inflammatory pain in rats (Randall-Selitto paw withdrawal threshold); type: in vivo; details: rat, 24 h after administration
Experimental: Male Wistar rats were injected into the right hind footpad with 300 μg of Mycobacterium tuberculosis in 100 μL of liquid paraffin (Complete Freund's Adjuvant; CFA). Seventy-two hours later, compounds 2 and 26 were administered subcutaneously and 24 h after the administration, the response to noxious mechanical stimulation was assessed by measuring paw withdrawal threshold (PWT) with an analgesimeter of the Randall-Selitto type. Animals were gently restrained, and steadily increasing pressure was applied to the dorsal surface of both the ipsi-lateral (CFA-treated) and the contra-lateral paw via a dome-shaped plastic tip.
100% protection means that the animal treated with the compound and CFA can tolerate the same stimulus (weight) as the control animal which has not received CFA treatment.

JB6 CI 41-5a (P+) = experiment: Toxicity in JB6 cells (MTT method); type: cell-based, murine; details: 3 μmolar, 24 hours of incubation
Experimental: Cell toxicity analysis in JB6 CI 41-5a (P+) is important to determine if the results obtained in GR assay are due to the pharmacological effect or to a toxicity effect of the products.
The murine epithelial cell line JB6 CI 41-5a (P+) (ATCC® Cat. # CRL-2010) was used to analyze the products cell toxicity by MTT method. 10^4 cells/well were plated in a 96× well plate MEM 5%. 48 h after plating the cells were pre-treated with the different compounds and positive standards for 1 h and then stimulated with TNFα (to simulate the same experimental conditions used in the gene reporter assay) for 4 and 24 h. At the end of the incubation time, the medium was removed and was substituted with a mixture 10:1 of MEM 5% MTT (2 mg/ml) for 1 h at 37° C. in the cell incubator. MTT is a tetrazolium salt especially useful for assaying the quantification of living metabolically active cells; it works by being metabolized by mitochondrial dehydrogenases to form a formazan dye (salt). After this incubation the supernatant was removed and the precipitated salt was dissolved with 100 μl of DMSO. The plate was then read at 540 nm. 100 μl of DMSO alone (without cells) were used as a blank, that was subtracted from the measure of each sample.

[3] = system: mechanical hyperalgesia in meniscal tear osteoarthritis; experiment: Surgically induced meniscal tear osteoarthritis in the rat (MMT); type: in vivo; details: for Pain threshold / Pain threshold: MPE (%): 10 mg/kg daily orally
Description: Male Sprague Dawley rats (Charles River) approximately 350 g body weight were used. Rats were anesthetized using 2.5% isoflurane in oxygen with a flow rate of 1 I per minute. The right hind leg was shaved and surgically prepared. The medial collateral ligament was exposed and transected. The meniscus was grasped with a hemostat and reflected proximally toward the femur. The meniscus was cut through its full thickness at the narrowest point. The connective tissue layer and the skin were closed with coated Vicryl 8-0 and 4-0 silk sutures, respectively. Sham operated animals underwent an identical procedure with the exception that the medial collateral ligament was exposed but not transected. After a recovery period of 2 weeks, mechanical hyperalgesia was evaluated for the following 4 weeks, once a week, before and 90 minutes after drugs administration. Pharmacological oral treatment was performed for 28 days, starting from 14 days after surgery. After 6 weeks from surgery, rats (ten animals per group) were sacrificed and the ipsilateral knee was removed for histopathological analysis.
The maximum possible effect (MPE %) was calculated by the following formula: 100*(Compound−Vehicle)/(Sham−Vehicle)

Pharmacokinetics in rats = type: in vivo, rat; details: 1 mg/kg orally

active FYN (human recombinant, 62.7 kDa), sequence (P06241 whole entry): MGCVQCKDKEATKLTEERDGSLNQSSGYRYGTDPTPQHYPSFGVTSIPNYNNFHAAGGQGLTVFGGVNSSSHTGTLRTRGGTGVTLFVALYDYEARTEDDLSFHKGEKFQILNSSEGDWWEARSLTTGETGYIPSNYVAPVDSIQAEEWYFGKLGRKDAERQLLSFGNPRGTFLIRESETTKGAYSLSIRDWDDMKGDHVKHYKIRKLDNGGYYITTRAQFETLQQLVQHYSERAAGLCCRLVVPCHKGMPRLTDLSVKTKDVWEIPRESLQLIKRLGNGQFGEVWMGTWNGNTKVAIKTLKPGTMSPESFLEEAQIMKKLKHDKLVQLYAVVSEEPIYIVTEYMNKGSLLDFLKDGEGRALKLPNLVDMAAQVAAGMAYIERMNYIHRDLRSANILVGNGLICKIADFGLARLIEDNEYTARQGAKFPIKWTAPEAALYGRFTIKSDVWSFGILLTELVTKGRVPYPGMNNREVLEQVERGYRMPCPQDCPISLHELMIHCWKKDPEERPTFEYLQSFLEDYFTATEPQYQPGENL

SMILES: O=C(Nc1ccc(CN2CCN(c3nccc(Nc4cc(C5CC5)[nH]n4)n3)CC2)cc1)c1ncccc1C(F)(F)F [Compound 26, N-(4-((4-(4-((5-cyclopropyl-1H-pyrazol-3-yl)amino)pyrimidin-2-yl)piperazin-1-yl)methyl)phenyl)-3-(trifluoromethyl)-picolinamide]
- IC50 [1]: 9 nM
- IC50 ([2]; Mus musculus): 247 nM
- % protective effect vs. CFA induced hyperalgesia (CFA induced hyperalgesia; 3): 100%

SMILES: O=C(Nc1ccc(CN2CCN(c3nccc(Nc4cc(C5CC5)[nH]n4)n3)CC2)cc1)c1nccnc1C(F)(F)F [Compound 36, N-(4-((4-(4-((5-cyclopropyl-1H-pyrazol-3-yl)amino)pyrimidin-2-yl)piperazin-1-yl)methyl)phenyl)-3-(trifluoromethyl)-pyrazine-2-carboxamide]
- IC50 [1]: 8 nM
- IC50 ([2]; Mus musculus): > 2000 nM

SMILES: O=C(Nc1cnc(CN2CCN(c3nccc(Nc4cc(C5CC5)[nH]n4)n3)CC2)cn1)c1ccccc1C(F)(F)F [Compound 41, N-(5-((4-(4-((5-cyclopropyl-1H-pyrazol-3-yl)amino)pyrimidin-2-yl)piperazin-1-yl)methyl)pyrazin-2-yl)-2-(trifluoromethyl)benzamide]
- IC50 [1]: 4 nM
- IC50 ([2]; Mus musculus): > 2000 nM

SMILES: O=C(Nc1ccc(CN2CCN(c3nccc(Nc4cc(C5CC5)[nH]n4)n3)CC2)nc1)c1ccccc1C(F)(F)F [Compound 43, N-(6-((4-(4-((5-cyclopropyl-1H-pyrazol-3-yl)amino)pyrimidin-2-yl)piperazin-1-yl)methyl)pyridin-3-yl)-2-(trifluoromethyl)benzamide]
- IC50 [1]: 27 nM
- IC50 ([2]; Mus musculus): 1050 nM

SMILES: CC(C)(C)n1nc(-c2ccc(Cl)cc2)c2c(N)ncnc21 [PP2, reference compound]
- percent residual cell vitality (JB6 CI 41-5a (P+)): 18%
- Pain threshold ([3]; day 14 post surgery): 285 g
- Pain threshold ([3]; day 21 post surgery): 278 g
- Pain threshold: MPE (%) ([3]; day 21 post surgery): 1.8%
- Pain threshold ([3]; day 28 post surgery): 267 g
- Pain threshold: MPE (%) ([3]; day 28 post surgery): 0%
- Pain threshold ([3]; day 35 post surgery): 262 g
- Pain threshold: MPE (%) ([3]; day 35 post surgery): 0%
- Pain threshold ([3]; day 42 post surgery): 253 g
- Pain threshold: MPE (%) ([3]; day 42 post surgery): 0%
- tolerability ([3]; rat, oral, doses higher than 10 mg/kg): not tolerated
- AUC (0-24 h) (Pharmacokinetics in rats): 0.16 µg·h/mL
- IC50 [2]: 505 nM
- % protective effect vs. CFA induced hyperalgesia (CFA induced hyperalgesia; 3): 45%
- % protective effect vs. CFA induced hyperalgesia (CFA induced hyperalgesia; 10): 47%
